From patent publication US12145944B2, “Imidazopyrimidines as EED inhibitors and the use thereof” (THE REGENTS OF THE UNIVERSITY OF MICHIGAN, priority 2019, dated 2024) come the findings set out here.

Test [1] deals with KARPAS422 human B cell lymphoma cell. The experiment in a line: Cell proliferation, KARPAS422, 7 day treatment (WST-8). In kind it is cell-based. Conditions: Homo sapiens, KARPAS-422, 168 h, anti-proliferative IC50, Karpas 422 cell line, 7 day treatment; read-out: Karpas Cell line. In short, it runs like this:
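Read-out was WST-8 absorbance at 450 nm after 1-4 h with reagent, taken after 7-day compound treatment (serial dilutions, 37 °C, 5% CO2) of 2 000-3 000 KARPAS422 cells per well. IC50 fitted by nonlinear regression on DMSO-normalized values.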
On the technique in general: Tetrazolium assays rely on reduction of a dye to a coloured formazan, in cell work by metabolically active cells.

For a further test, the system named is Pfeiffer cell line. The experiment in a line: Anti-proliferative activity, Pfeiffer cell line, 7 day treatment. In kind it is cell-based. The following applies: Homo sapiens, 168 h; anti-proliferative IC50, Pfeiffer cell line, 7 day treatment; read-out: Pfeiffer Cell line. In short, it runs like this:
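Cells seeded at 2 000-3 000 per well were treated with serially diluted compounds for 7 days at 37° C, 5% CO2. Growth was measured by WST-8 assay read at 450 nm after 1-4 h reagent incubation. Readings were normalized to DMSO-treated cells and IC50 values derived by nonlinear regression.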

Structures are written as SMILES.

As for `O=C1OCc2cc(C(F)(F)F)ccc2-c2cnc(NCc3cccc4c3OCO4)n3cnc1c23` [compound 27, 12-((benzo[d][1,3]dioxol-4-ylmethyl)amino)-7-(trifluoromethyl)-3H,5H-4-oxa-2,11,12a-triazabenzo[4,5]cycloocta[1,2,3-cd]inden-3-one], the IC50 (in test [1]; in the test with Pfeiffer cell line) was greater than 100 nM throughout.
For the compound `COc1cccc(F)c1CNc1ncc2c3c(ncn13)C(=O)OCc1cc(C(F)(F)F)ccc1-2` [compound 28, 12-((2-fluoro-6-methoxybenzyl)amino)-7-(trifluoromethyl)-3H,5H-4-oxa-2,11,12a-triazabenzo[4,5]cycloocta[1,2,3-cd]inden-3-one], the IC50 (in test [1]; with Pfeiffer cell line) was greater than 100 nM throughout.
As for `O=C1OCc2cnc(C(F)(F)F)cc2-c2cnc(NCc3c(F)ccc4c3CCO4)n3cnc1c23` [compound 32, 12-(((5-fluoro-2,3-dihydrobenzofuran-4-yl)methyl)amino)-8-(trifluoromethyl)-3H,5H-4-oxa-2,7,11,12a-tetraazabenzo[4,5]cycloocta[1,2,3-cd]inden-3-one], the IC50 amounted to 84.4 nM in test [1] and 11.6 nM in the test on Pfeiffer cell line.
Consider `CN1Cc2nc(C(F)(F)F)ccc2-c2cnc(NCc3c(F)ccc4c3CCO4)n3cnc(c23)C1=O` [compound 33, 12-(((5-fluoro-2,3-dihydrobenzofuran-4-yl)methyl)amino)-4-methyl-7-(trifluoromethyl)-4,5-dihydro-3H-2,4,6,11,12a-pentaazabenzo[4,5]cycloocta[1,2,3-cd]inden-3-one], for which the IC50 was 1.11 nM in test [1] and 0.22 nM in the test on Pfeiffer cell line.
On the same counts, the results for `CN1Cc2cc(C(F)(F)F)ncc2-c2cnc(NCc3c(F)ccc4c3CCO4)n3cnc(c23)C1=O` [compound 34, 12-(((5-fluoro-2,3-dihydrobenzofuran-4-yl)methyl)amino)-4-methyl-7-(trifluoromethyl)-4,5-dihydro-3H-2,4,8,11,12a-pentaazabenzo[4,5]cycloocta[1,2,3-cd]inden-3-one] are 2.64 nM and 0.35 nM.
`O=C1c2ncn3c(NCc4c(F)ccc5c4CCO5)ncc(c23)-c2ccc(C(F)(F)F)nc2CN1CC1COCCO1` (stereo not drawn) [compound 35, 4-((1,4-dioxan-2-yl)methyl)-12-(((5-fluoro-2,3-dihydrobenzofuran-4-yl)methyl)amino)-7-(trifluoromethyl)-4,5-dihydro-3H-2,4,6,11,12a-pentaazabenzo[4,5]cycloocta[1,2,3-cd]inden-3-one]: the IC50 in test [1] came out at 1.23 nM; with Pfeiffer cell line it was 0.12 nM.
On the same counts, the results for `O=C1c2ncn3c(NCc4c(F)ccc5c4CCO5)ncc(c23)-c2cnc(C(F)(F)F)cc2CN1CC1COCCO1` (stereo not drawn) [compound 37, 4-((1,4-dioxan-2-yl)methyl)-12-(((5-fluoro-2,3-dihydrobenzofuran-4-yl)methyl)amino)-7-(trifluoromethyl)-4,5-dihydro-3H-2,4,8,11,12a-pentaazabenzo[4,5]cycloocta[1,2,3-cd]inden-3-one] are 1.79 nM and 0.25 nM.
On the same counts, the results for `CN1CCC(CN2Cc3cc(C(F)(F)F)ncc3-c3cnc(NCc4c(F)ccc5c4CCO5)n4cnc(c34)C2=O)CC1` [compound 38, 12-(((5-fluoro-2,3-dihydrobenzofuran-4-yl)methyl)amino)-4-((1-methylpiperidin-4-yl)methyl)-7-(trifluoromethyl)-4,5-dihydro-3H-2,4,8,11,12a-pentaazabenzo[4,5]cycloocta[1,2,3-cd]inden-3-one] are 15.7 nM and 3.22 nM.
On the same counts, the results for `CN1Cc2ccc(C(F)(F)F)nc2-c2cnc(NCc3c(F)ccc4c3CCO4)n3cnc(c23)C1=O` [compound 39, 12-(((5-fluoro-2,3-dihydrobenzofuran-4-yl)methyl)amino)-4-methyl-8-(trifluoromethyl)-4,5-dihydro-3H-2,4,9,11,12a-pentaazabenzo[4,5]cycloocta[1,2,3-cd]inden-3-one] are greater than 100 nM and 22.7 nM.
Regarding `O=C1c2ncn3c(NCc4c(F)ccc5c4CCO5)ncc(c23)-c2nc(C(F)(F)F)ccc2CN1CC1COCCO1` (stereo not drawn) [compound 40, 4-((1,4-dioxan-2-yl)methyl)-12-(((5-fluoro-2,3-dihydrobenzofuran-4-yl)methyl)amino)-8-(trifluoromethyl)-4,5-dihydro-3H-2,4,9,11,12a-pentaazabenzo[4,5]cycloocta[1,2,3-cd]inden-3-one], the IC50 in test [1] is greater than 100 nM; in the test on Pfeiffer cell line, 38.8 nM.
On to `O=C1c2ncn3c(NCc4c(F)ccc5c4CCO5)ncc(c23)-c2ccc(C(F)(F)F)nc2CN1C1CC1` [compound 41, 4-cyclopropyl-12-(((5-fluoro-2,3-dihydrobenzofuran-4-yl)methyl)amino)-7-(trifluoromethyl)-4,5-dihydro-3H-2,4,6,11,12a-pentaazabenzo[4,5]cycloocta[1,2,3-cd]inden-3-one], for which the IC50 in test [1] amounted to 1.69 nM; in the test on Pfeiffer cell line it was 1.03 nM.
In the case of `CN1CCC(CN2Cc3nc(C(F)(F)F)ccc3-c3cnc(NCc4c(F)ccc5c4CCO5)n4cnc(c34)C2=O)CC1` [compound 42, 12-(((5-fluoro-2,3-dihydrobenzofuran-4-yl)methyl)amino)-4-((1-methylpiperidin-4-yl)methyl)-7-(trifluoromethyl)-4,5-dihydro-3H-2,4,6,11,12a-pentaazabenzo[4,5]cycloocta[1,2,3-cd]inden-3-one], the figures for the IC50 (in test [1]; with Pfeiffer cell line) were 4.01 nM and 4.19 nM, respectively.
On to `O=C1c2ncn3c(NCc4c(F)ccc5c4CCO5)ncc(c23)-c2cnc(C(F)(F)F)cc2CN1CC1(O)CC1` [compound 43, 12-(((5-fluoro-2,3-dihydrobenzofuran-4-yl)methyl)amino)-4-((1-hydroxycyclopropyl)methyl)-7-(trifluoromethyl)-4,5-dihydro-3H-2,4,8,11,12a-pentaazabenzo[4,5]cycloocta[1,2,3-cd]inden-3-one], for which the figures for the IC50 (in test [1]; in the test on Pfeiffer cell line) were 5.46 nM and 1.05 nM, respectively.
Regarding `O=C1c2ncn3c(NCc4c(F)ccc5c4CCO5)ncc(c23)-c2ccc(C(F)(F)F)nc2CN1CC1(O)CC1` [compound 44, 12-(((5-fluoro-2,3-dihydrobenzofuran-4-yl)methyl)amino)-4-((1-hydroxycyclopropyl)methyl)-7-(trifluoromethyl)-4,5-dihydro-3H-2,4,6,11,12a-pentaazabenzo[4,5]cycloocta[1,2,3-cd]inden-3-one], the IC50 was determined as 2.44 nM in test [1] and 1.03 nM with Pfeiffer cell line.
For `O=C1c2ncn3c(NCc4c(F)ccc5c4CCO5)ncc(c23)-c2cnc(C(F)(F)F)cc2CN1CC1CCOCC1` [compound 45, 12-(((5-fluoro-2,3-dihydrobenzofuran-4-yl)methyl)amino)-4-((tetrahydro-2H-pyran-4-yl)methyl)-7-(trifluoromethyl)-4,5-dihydro-3H-2,4,8,11,12a-pentaazabenzo[4,5]cycloocta[1,2,3-cd]inden-3-one], the IC50 in test [1] was found to be 6.15 nM; in the test on Pfeiffer cell line, 0.61 nM.
Consider `CC(F)(F)CN1Cc2cc(C(F)(F)F)ncc2-c2cnc(NCc3c(F)ccc4c3CCO4)n3cnc(c23)C1=O` [compound 82, 4-(2,2-difluoropropyl)-12-(((5-fluoro-2,3-dihydrobenzofuran-4-yl)methyl)amino)-7-(trifluoromethyl)-4,5-dihydro-3H-2,4,8,11,12a-pentaazabenzo[4,5]cycloocta[1,2,3-cd]inden-3-one], for which the IC50 came to 3.51 nM in test [1] and 0.074 nM in the test on Pfeiffer cell line.
As for `O=C1c2ncn3c(NCc4c(F)ccc5c4CCO5)ncc(c23)-c2ccc(C(F)(F)F)cc2CN1CC(F)(F)F` [compound 83, 12-(((5-fluoro-2,3-dihydrobenzofuran-4-yl)methyl)amino)-4-(2,2,2-trifluoroethyl)-7-(trifluoromethyl)-4,5-dihydro-3H-2,4,11,12a-tetraazabenzo[4,5]cycloocta[1,2,3-cd]inden-3-one], the IC50 in test [1] is 6.32 nM; with Pfeiffer cell line, 0.304 nM.
On the same counts, the results for `O=C1c2ncn3c(NCc4c(F)ccc5c4CCO5)ncc(c23)-c2cnc(C(F)(F)F)cc2CN1CC(F)(F)F` [compound 84, 12-(((5-fluoro-2,3-dihydrobenzofuran-4-yl)methyl)amino)-4-(2,2,2-trifluoroethyl)-7-(trifluoromethyl)-4,5-dihydro-3H-2,4,8,11,12a-pentaazabenzo[4,5]cycloocta[1,2,3-cd]inden-3-one] are 1.48 nM and 0.048 nM.
Consider `O=C1c2ncn3c(NCc4c(F)ccc5c4CCO5)ncc(c23)-c2cnc(C(F)(F)F)cc2CN1C1CC(F)(F)C1` [compound 85, 4-(3,3-difluorocyclobutyl)-12-(((5-fluoro-2,3-dihydrobenzofuran-4-yl)methyl)amino)-7-(trifluoromethyl)-4,5-dihydro-3H-2,4,8,11,12a-pentaazabenzo[4,5]cycloocta[1,2,3-cd]inden-3-one], for which the results for the IC50 (in test [1]; in the test with Pfeiffer cell line) were 2.71 nM and 0.13 nM, respectively.
Regarding `Cc1nc2c(s1)-c1cnc(NCc3c(F)ccc4c3CCO4)n3cnc(c13)C(=O)N(C1CC1)C2` [compound 86, 4-cyclopropyl-11-(((5-fluoro-2,3-dihydrobenzofuran-4-yl)methyl)amino)-7-methyl-4,5-dihydro-3H-8-thia-2,4,6,10,11a-pentaazacyclopenta[4,5]cycloocta[1,2,3-cd]inden-3-one], the IC50 came to 2.29 nM in test [1] and 0.021 nM in the test with Pfeiffer cell line.
On the same counts, the results for `O=C1c2ncn3c(NCc4c(F)ccc5c4CCO5)ncc(c23)-c2ccsc2CN1C1CC1` [compound 88, 4-cyclopropyl-11-(((5-fluoro-2,3-dihydrobenzofuran-4-yl)methyl)amino)-4,5-dihydro-3H-6-thia-2,4,10,11a-tetraazacyclopenta[4,5]cycloocta[1,2,3-cd]inden-3-one] are 25.7 nM and 0.035 nM.
